Data set [1] concerns HBsAg. The experiment in a line: microbe, parasite or virus in culture. The data set is classed as cell-based, Hepatitis B virus. The note with it: for pEC50: Hepatitis B virus, 144 h, read-out: Anti-viral activity (ED50) HbsAg; for HbsAg expression inhibition: in words.
Data set [2] relates to HBV. The experiment in a line: microbe, parasite or virus in culture. The data set is classed as cell-based, Hepatitis B virus. Conditions: for pEC50: Hepatitis B virus, 144 h; for inhibition of HBV replication / DNA level: in words.
Data set [3] concerns Yellow Fever virus. Nature of the data set: microbe, parasite or virus in culture. The class given is cell-based.
The subject of data set [4] is HBsAg in HepA2 cells. Nature of the data set: Suppression of HBsAg secretion in HepA2 cells, serum-free, 2 days. The data set is classed as cell-based. The note with it: Homo sapiens, HepA2, 48 h, read-out: EC50 HepA2 (50% reduction of HBsAg secretion). The source says: (§1) Biological testing results of Helioxanthin and
(§2) its derivatives for suppression of HBsAg
(§3) in HepA2 and Hep3B cells in serum-free condition for 2 days
The symbol, "*" denotes HepA2, HBV DNA stable transfected HBV dimer DNA.
(§4) The symbol, "**" denotes EC50, the concentration of tested compounds
(§5) which exerted 50% reduction of HBsAg secretion in human hepatoma cells.

Data set [5] concerns HBsAg in Hep3B cells. Nature of the data set: Suppression of HBsAg secretion in Hep3B cells, serum-free, 2 days. The class given is cell-based. Conditions: Homo sapiens, 48 h, read-out: EC50 Hep3B (50% reduction of HBsAg secretion).
Text: as §1, §2, §3, §4, §5

Data set [6] is described as follows: Cytotoxicity, HepG2 cell growth. The class given is cell-based. The note with it: human, hepg2 cells; 3 days; read-out: Cytotoxicity (IC50) HepG2 cell. As to the method: (§6) To determine the cellular toxicity of the present compounds, the T-lymphoblastoic cell line (CEM) and the HEP-G2 cell line (parent cell line from which 2.2.15 cell line is produced) were used. Cells were subjected to varying concentrations of the drug(s) and cell numbers were determined 3 days post treatment by the method described by Chen, C-H and Cheng, Y-C, J. Biol. Chem., 264, 11934 (1989). Concentrations of the drug which would result in inhibition of cell growth were determined from the plot generated by representing cell numbers corresponding to the individual drug concentrations.

A short description of data set [7]: Solubility: saturated solution in PBS at room temperature. The data set is classed as physicochemical. Conditions: aqueous buffer. From the text:
3. The symbol "*" denotes the concentration of the saturated solution in
PBS at room temperature.

A short description of data set [8]: Cytotoxicity, CEM cell growth. The data set is classed as cell-based. Conditions: human, cem cells; 3 days; read-out: Cytotoxicity (IC50) CEM cell. As for the experimental part: as §6
The mark [9] stands for this setting: Yellow fever virus, BHK, 144 h, read-out: Anti-viral activity (ED50) YFV, plaque reduction, BHK cells, 6 days.

From patent US6306899A (priority 1999, dated 2001) come the findings set out here.

pEC50: −log10 of the molar value. Converted amounts (≈) assume the structure as drawn. Like-named read-outs stand apart in the source and are kept apart here. A value given as a limit tells only on which side of the number the result lay.

A word on the solubility: it is the dissolved amount per volume that the medium holds. Low values mean a poorly soluble substance, high ones a readily soluble substance.

`Cc1c(C(=O)O)cc2ccc3c(c2c1-c1ccc2c(c1)OCO2)OCO3` [ZHU-X-4]: the figures for the pEC50 in data set [1], in data set [2] and in data set [3] (setting [9]) were below 5.00, below 5.00 and below 4.70, respectively.
With `COc1cc2c(OC)c3c(c(-c4ccc5c(c4)OCO5)c2cc1OC)C(=O)OC3` [Justicidin A], the pEC50 in data set [4] and in data set [5] was below 4.90 in each case.
Regarding `COc1cc(-c2c3c(cc4cc(OC)c(O)cc24)C(=O)OC3)ccc1O` [Dehydroconidendrin], the pEC50 in data set [4] and in data set [5] was below 4.90 each time.
As for `Cc1cc2ccc3c(c2c(-c2ccc4c(c2)OCO4)c1CO)OCO3` [ZHU-IX-159, 3-methyl-7,8-methylenedioxy-1-(3',4'-methylenedioxyphenyl)-2-hydroxymethylenaphtalene], the values for the pEC50 in data set [1], in data set [2] and in data set [3] (setting [9]) were 5.00, below 5.00 and below 5.00, respectively. Further, the CC50 at 72 h in data set [6] was 16 µM. In data set [7], the concentration in solution (solubility) came to 24.4 µM (≈ 8.21 µg/mL).
Turning to `O=C(O)c1cc2ccc3c(c2c(-c2ccc4c(c2)OCO4)c1CO)OCO3` [ZHU-IX-157, sodium 5,6-methylenedioxy-4-(3',4'-methylenedioxyphenyl)-3-hydroxymethylnapthalene-2-carbonate], the pEC50 in data set [1] was 5.00; in data set [2] it was 5.60; in data set [3] (setting [9]) it was 5.10. The “activity against the Yellow fever virus” value in data set [3] (in words) is “demonstrated activity against the Yellow fever virus”. The CC50 at 72 h is 26 µM in data set [6] and above 30 µM in data set [8]. Also, the solubility in data set [7] is 255 µM.
For the molecule `COc1cc2c(O)c3c(c(-c4ccc5c(c4)OCO5)c2cc1OC)C(=O)OC3` [Diphylline], the pEC50 in data set [4] and in data set [5] was below 4.90 throughout.
For the molecule `COc1cc2c(OC(C)=O)c3c(c(-c4ccc5c(c4)OCO5)c2cc1OC)C(=O)OC3` [Diphylline Acetate], the pEC50 in data set [4] and in data set [5] was below 4.90 each time.
With `O=C1OCc2c1c(-c1ccc3c(c1)OCO3)c1cc3c(cc1c2O)OCO3` [Taiwanin E], the pEC50 in data set [4] and in data set [5] was below 4.90 throughout.
As for `OCc1cc2c(Br)cc3c(c2c(-c2ccc4c(c2)OCO4)c1CO)OCO3` [ZHU-IX-135-1, 2,3-dihydroxymethyl-5-bromo-7,8-methylenedioxy-1-(3', 4'-methylenedioxyphenyl)napthalene], the pEC50 is 5.07 in data set [1], 5.52 in data set [2] and 4.85 in data set [3] (setting [9]). For the same molecule, in data set [1], the HbsAg expression inhibition entry was “inhibit HBV replication and HbsAg expression”. For the same molecule, the “inhibition of HBV replication / DNA level” value in data set [2] is reported as “inhibit HBV replication”. Besides, the CC50 at 72 h is 12 µM in data set [6] and above 30 µM in data set [8]. The solubility in data set [7] amounted to 24.8 µM (≈ 10.7 µg/mL).
In the case of `COc1cc(C2c3cc(OC(C)=O)c(OC)cc3CC3C(=O)OCC32)ccc1OC(C)=O` (stereo not shown) [Conidendrin Diacetate], the pEC50 in data set [4] and in data set [5] was below 4.90 each time.
As to `O=C1OC(=O)c2c1cc1c(Br)cc3c(c1c2-c1cc2c(cc1Br)OCO2)OCO3` [ZHU-IX-120-1, 5-bromo-7,8-methylenedioxy-1-(2'-bromo-4',5'-methylenedioxyphenyl)napthalene-2,3-dicarboxylic acid anhydride], the pEC50 in data set [1], in data set [2] and in data set [3] (setting [9]) was below 5.00 in each case. Moreover, the CC50 at 72 h in data set [6] is 6 µM; in data set [8], above 30 µM. This molecule gave a solubility in data set [7] of 13.8 µM (≈ 7.18 µg/mL).
In the case of `Cc1c(C=O)cc2ccc3c(c2c1-c1ccc2c(c1)OCO2)OCO3` [ZHU-IX-189, 5,6-methylenedioxy-4-(3',4'-methylendioxyphenyl)-2-methylnapthalene-3-aldehyde], the figures for the pEC50 in data set [1], in data set [2] and in data set [3] (setting [9]) were below 5.00, below 5.00 and below 4.60, respectively.
For the molecule `Cc1c(C(=O)O)cc2ccc3c(c2c1-c1ccc2c(c1)OCO2)OCO3` [ZHU-X-10, sodium 5,6-methylenedioxy-4-(3',4'-methylenedioxyphenyl)-2-methylnapthalene-3-carbonate], in data set [3] (read-out: Anti-viral activity (ED50) YFV, plaque reduction, BHK cells, 6 days, 8640 min), the pEC50 was below 4.60.
For `O=C1OCc2cc3cc4c(cc3c(-c3ccc5c(c3)OCO5)c21)OCO4` [Taiwanin C], the pEC50 in data set [4] was 5.90; in data set [5], 6.00.
In the case of `O=C1OCc2cc3ccc4c(c3c(-c3ccc5c(c3)OCO5)c21)OCO4` [ZHU-IX-139-2, 7,8-methylendioxy-1-(3',4'-methylenedioxyphenyl)-3-hydroxymethylnapthalene-2-carboxylic acid lactone], the pEC50 in data set [1] is 5.00; in data set [2], below 5.00; in data set [3] (setting [9]), 4.80. Moreover, the CC50 at 72 h in data set [6] amounted to 12 µM; in data set [8], 18 µM. Moreover, the solubility in data set [7] is 21 µM (≈ 7.31 µg/mL).
Turning to `O=C1OCc2c1cc1c(Br)cc3c(c1c2-c1cc2c(cc1Br)OCO2)OCO3` [ZHU-IX-143, 8,2'-dibromo-5,6-methylenedioxy-4-(4',5'-methylenedioxyphenyl)-3-hydroxymethylnapthalene-2-carboxylic acid lactone], the pEC50 in data set [1], in data set [2] and in data set [3] (setting [9]) was below 5.00 throughout. Also, the CC50 at 72 h was 20 µM in data set [6] and above 30 µM in data set [8]. In data set [7], this molecule gave a solubility of 11.9 µM (≈ 6.02 µg/mL).
For `O=C(O)c1c(CO)cc2ccc3c(c2c1-c1ccc2c(c1)OCO2)OCO3` [ZHU-IX-153, sodium 7,8-methylenedioxy-1-(3',4'-methylendioxyphenyl)-3-hydroxymethylnapthalene-2-carbonate], the pEC50 in data set [1], in data set [2] and in data set [3] (setting [9]) was below 5.00 in each case. The CC50 at 72 h in data set [6] was above 30 µM. The molecule further returned a solubility in data set [7] of 255 µM.
Take `COc1cc(-c2c3c(cc4cc(OC)c(OC(C)=O)cc24)C(=O)OC3)ccc1OC(C)=O` [Diacetate]: the pEC50 in data set [4] and in data set [5] was below 4.90 in each case.
On to `COc1cc(C2c3cc(O)c(OC)cc3CC3C(=O)OCC32)ccc1O` (stereo not shown) [Conidendrin], for which the pEC50 in data set [4] and in data set [5] was below 4.90 throughout.
Regarding `OCc1cc2ccc3c(c2c(-c2ccc4c(c2)OCO4)c1CO)OCO3` [ZHU-IX-124-2, 2,3-dihydroxymethyl-5,6-methylenedioxy-4-(3',4'-methylenedioxyphenyl)napthalene], the values for the pEC50 in data set [1], in data set [2] and in data set [3] (setting [9]) were 5.00, 5.00 and below 5.00, respectively. The results for the CC50 at 72 h in data set [6] and in data set [8] were 16 µM and above 30 µM, respectively. In addition, the solubility in data set [7] was determined as 127 µM (≈ 44.8 µg/mL).
Turning to `Cc1cc2ccc3c(c2c(-c2ccc4c(c2)OCO4)c1C)OCO3` [ZHU-IX-163-2], the pEC50 in data set [1], in data set [2] and in data set [3] (setting [9]) was below 5.00 each time. Moreover, the CC50 at 72 h in data set [6] is 17 µM. For the same molecule, in data set [7], the concentration in solution (solubility) was 18.4 µM (≈ 5.89 µg/mL).
Turning to `O=C1OC(=O)c2c1c(Br)c1cc3c(cc1c2-c1cc2c(cc1Br)OCO2)OCO3` [ZHU-IX-120-2, 1-bromo-6,7-methylenedioxy-4-(2'-bromo-4', 5'-methylenedioxyphenyl)napthalene-2,3-dicarboxylic acid anyhdride], the pEC50 in data set [1], in data set [2] and in data set [3] (setting [9]) was below 5.00 each time. Further, the CC50 at 72 h is 6 µM in data set [6] and above 30 µM in data set [8]. In data set [7], this molecule showed a solubility of 13.1 µM (≈ 6.81 µg/mL).
On to `Cc1c(CO)cc2ccc3c(c2c1-c1ccc2c(c1)OCO2)OCO3` [ZHU-IX-122-1, 3-methyl-5,6-methylenedioxy-4-(3',4'-methylenedioxyphenyl)-2-hydroxymethylnapthalene], for which the pEC50 in data set [1] is 5.00; in data set [2], 5.30; in data set [3] (setting [9]), below 5.00. For the same molecule, the HbsAg expression inhibition result in data set [1] is “inhibit HBV replication and HbsAg expression”. For the same molecule, the “inhibition of HBV replication / DNA level” value in data set [2] is reported as “inhibit HBV replication”. The CC50 at 72 h in data set [6] and in data set [8] was above 30 µM in each case. The amount in solution in data set [7] (solubility) came to 52.9 µM (≈ 17.8 µg/mL).
`O=C1OC(=O)c2c1cc1cc3c(cc1c2-c1cc2c(cc1Br)OCO2)OCO3` [ZHU-IX-120-3, 6,7-methylenedioxy-1-(2'-bromo-4',5'-methylenedioxyphenyl)napthalene-2,3-dicarboxylic acid anhydride]: the pEC50 in data set [1], in data set [2] and in data set [3] (setting [9]) was below 5.00 in each case. The CC50 at 72 h in data set [6] was 11 µM; in data set [8], above 30 µM. In data set [7], this molecule returned a solubility of 11.8 µM (≈ 5.21 µg/mL).
On to `CC(=O)Oc1c2c(c(-c3ccc4c(c3)OCO4)c3cc4c(cc13)OCO4)C(=O)OC2` [Taiwanin E acetate], for which the pEC50 in data set [4] and in data set [5] was below 4.90 each time.
As to `COc1ccc(C2c3cc(OC)c(OC)cc3CC3C(=O)OCC32)cc1OC` (stereo not shown) [Conidendrin Methyl Ether], the pEC50 in data set [4] and in data set [5] was below 4.90 throughout.
